{
  "source": "patent US20110119780A1",
  "about": "“SCREENING FOR NON-GENOTOXIC CARCINOGENS” (priority 2008, published 2011)",
  "key": {"[1]": {"parameters": "species or system mice", "settings": "mouse, in vivo, po, 50 mg/kg", "description": "Animals were treated either with 4 daily doses of Wy-14,643/corn oil (50 mg/kg, orally) or with corn oil alone, as shown in Table 2. Approximately 24 hr after the last dose, all mice were sacrificed using an increasing concentration of CO2. Liver and plasma were collected for analysis. Following treatment with Wy-14,643 or the vehicle (corn oil), the mice were sacrificed and their livers removed and weighed. […] The concentration of inducing agent was of supplied chemical, without any correction for purity. The volume administered was 10 ml/kg bodyweight. […] On the day of termination the mice were weighed, the body weights recorded, and then transferred to a suitable room for post mortem. Approximately 24 hrs after treatment, the mice will be killed by exposure to a rising concentration of CO2."}, "[2]": {"format": "in vivo, mice", "settings": "for Diluted Chol / Diluted HDL / Diluted LDL / Diluted Trig: dilution factor 2; for Diluted Chol / Diluted HDL / Diluted LDL / Diluted Trig / Normalised Chol / Normalised HDL / Normalised LDL / Normalised Trig: individual mice", "description": "The plasma was processed by taking blood from the terminated mice by cardiac puncture into lithium/heparin-coated tubes. Following removal into suitable tubes for plasma preparation, terminal blood samples taken by cardiac puncture were mixed on a roller for 10 min then cooled on ice. Red blood cells were removed by centrifugation (2,000-3,000 rpm for 10 min at 8-10° C.). Immediately after centrifugation, the supernatant (plasma) was collected in eppendorfs and kept on wet ice. Plasma was transferred into cryovials for clinical chemistry and immediately flash frozen in liquid nitrogen, then stored at approximately −70° C. […] In order to investigate potential hepatotoxicity caused by Wy-14,643 treatment, markers of liver damage, alanine aminotransferase (ALT), aspartate aminotransferase (AST) and alkaline phosphatase (ALP) were measured in WT and hPPARα mice (Tables 6-8). Liver related plasma biomarkers, albumin (ALB), conjugated and total bilirubin (BIL-D and BIL-T respectively), cholesterol, high density lipoprotein (HDL-C), low density lipoprotein (LDL-C) and triglycerides were also investigated in all available plasma samples in order to characterise basal hepatic function in hPPARα mice relative to WT mice (Tables 9-15)."}, "Cyp4a protein": {"test_system": "Cyp4a protein", "settings": "WT mice; liver microsomes; 50 mg/kg orally x4 daily", "description": "Henderson, University of Dundee, UK). The standard used was APFO-induced WT rat liver microsomes (1 μg protein loaded).\nTo investigate the downstream effects of PPARα activation, the expression of Cyp4a proteins was evaluated by immunoblot analysis in liver microsomes from WT and hPPARα mice.\nIndividual liver microsomal samples were analysed by immunoblotting for Cyp4a. Protein concentration was measured using the CXR microlowry method. Quantification of Cyp4a protein in mouse liver microsomes was carried out. A murine his-tagged Cyp4a recombinant standard was loaded onto the NU-PAGE gel."}, "[3]": {"test_system": "cyanide-insensitive palmitoyl-CoA oxidation", "experiment": "Cyanide-insensitive palmitoyl CoA oxidation in mouse liver (crude mitochondria)", "format": "in vivo", "settings": "for PCO oxidation, NAD + red.: crude mitochondrial fraction of liver, 50 mg/kg orally x4 daily, individual mice, 50 mg/kg", "description": "Measurements of cyanide-insensitive pCoA oxidation in crude mitochondrial fractions were performed as described."}, "Cyp4a activity": {"test_system": "Cyp4a activity", "settings": "mouse, in vivo", "description": "Lauric acid hydroxylation activity measurements in liver microsomes were performed.\nLiver microsomes from each available animal were evaluated for Cyp4a activity by measuring lauric acid hydroxylation (FIG. 19, Tables 17-18)."}, "[4]": {"settings": "WT mice, plasma, 50 mg/kg orally x4 daily, 50 mg/kg"}, "[5]": {"settings": "WT mice, plasma, 50 mg/kg orally x4 daily, n = 3"}, "[6]": {"settings": "WT mice, plasma, % mean own control"}, "[7]": {"settings": "hPPARα mice, plasma, 50 mg/kg orally x4 daily, 50 mg/kg"}},
  "note": "Values joined by “and” are separate entries in the source; they are usually repeats but may differ in a detail not shown here. Identical values can stand only once. Like-named read-outs stand apart in the source and are kept apart here.",
  "data": [
    {"smiles": "Cc1cccc(Nc2cc(Cl)nc(SCC(=O)O)n2)c1C", "note": "[Wy-14,643]", "values": [
      {"measurement": "Body weights, % Mean", "setting": "[1]", "value": 98, "unit": "%"},
      {"measurement": "Body weights, Mean", "setting": "[1]", "value": 26, "unit": "g"},
      {"measurement": "Liver body weight ratios, % Mean", "setting": "[1]", "value": 139, "unit": "%"},
      {"measurement": "Liver body weight ratios, Mean", "setting": "[1]", "value": 6.46, "unit": "%"},
      {"measurement": "Liver weights, % Mean", "setting": "[1]", "value": 135, "unit": "%"},
      {"measurement": "Liver weights, Mean", "setting": "[1]", "value": 1.69, "unit": "g"},
      {"measurement": "triglyceride concentrations, decrease compared to corresponding control mice", "setting": "[2]; WT mice, p<0.05", "value": "~50", "unit": "%"},
      {"measurement": "Diluted Chol", "setting": "[2]; [4]", "value": "1.25 mmol/L and 1.02 mmol/L and 1.40 mmol/L"},
      {"measurement": "Diluted HDL", "setting": "[2]; [4]", "value": "1.28 mmol/L and 1.02 mmol/L and 1.36 mmol/L"},
      {"measurement": "Diluted LDL", "setting": "[2]; [4]", "value": "0.12 mmol/L and 0.08 mmol/L and 0.14 mmol/L"},
      {"measurement": "Diluted Trig", "setting": "[2]; [4]", "value": "0.27 mmol/L and 0.21 mmol/L and 0.31 mmol/L"},
      {"measurement": "Normalised Chol", "setting": "[2]; [4]", "value": "2.50 mmol/L and 2.04 mmol/L and 2.80 mmol/L"},
      {"measurement": "Normalised HDL", "setting": "[2]; [4]", "value": "2.56 mmol/L and 2.04 mmol/L and 2.72 mmol/L"},
      {"measurement": "Normalised LDL", "setting": "[2]; [4]", "value": "0.24 mmol/L and 0.16 mmol/L and 0.28 mmol/L"},
      {"measurement": "Normalised Trig", "setting": "[2]; [4]", "value": "0.54 mmol/L and 0.42 mmol/L and 0.62 mmol/L"},
      {"measurement": "Cholesterol, Mean", "setting": "[2]; [5]", "value": 2.45, "unit": "mmol/L"},
      {"measurement": "HDL, Mean", "setting": "[2]; [5]", "value": 2.44, "unit": "mmol/L"},
      {"measurement": "LDL, Mean", "setting": "[2]; [5]", "value": 0.23, "unit": "mmol/L"},
      {"measurement": "Triglycerides, Mean", "setting": "[2]; [5]", "value": 0.53, "unit": "mmol/L"},
      {"measurement": "Cholesterol, % Mean", "setting": "[2]; [6]", "value": 97, "unit": "%"},
      {"measurement": "HDL, % Mean", "setting": "[2]; [6]", "value": 103, "unit": "%"},
      {"measurement": "LDL, % Mean", "setting": "[2]; [6]", "value": 89, "unit": "%"},
      {"measurement": "Triglycerides, % Mean", "setting": "[2]; [6]", "value": 56, "unit": "%"},
      {"measurement": "Diluted Chol", "setting": "[2]; [7]", "value": "1.18 mmol/L and 1.47 mmol/L"},
      {"measurement": "Diluted HDL", "setting": "[2]; [7]", "value": "1.14 mmol/L and 1.46 mmol/L"},
      {"measurement": "Diluted LDL", "setting": "[2]; [7]", "value": "0.07 mmol/L and 0.11 mmol/L"},
      {"measurement": "Diluted Trig", "setting": "[2]; [7]", "value": "0.64 mmol/L and 0.60 mmol/L"},
      {"measurement": "Normalised Chol", "setting": "[2]; [7]", "value": "2.36 mmol/L and 2.94 mmol/L"},
      {"measurement": "Normalised HDL", "setting": "[2]; [7]", "value": "2.28 mmol/L and 2.92 mmol/L"},
      {"measurement": "Normalised LDL", "setting": "[2]; [7]", "value": "0.14 mmol/L and 0.22 mmol/L"},
      {"measurement": "Normalised Trig", "setting": "[2]; [7]", "value": "1.28 mmol/L and 1.20 mmol/L"},
      {"measurement": "ALP, % Mean", "setting": "[2]; mouse, in vivo", "value": 129, "unit": "%"},
      {"measurement": "ALT, % Mean", "setting": "[2]; mouse, in vivo", "value": 117, "unit": "%"},
      {"measurement": "AST, % Mean", "setting": "[2]; mouse, in vivo", "value": 121, "unit": "%"},
      {"measurement": "Albumin, % Mean", "setting": "[2]; mouse, in vivo", "value": 101, "unit": "%"},
      {"measurement": "BIL-D, % Mean", "setting": "[2]; mouse, in vivo", "value": 22, "unit": "%"},
      {"measurement": "BIL-T, % Mean", "setting": "[2]; mouse, in vivo", "value": 69, "unit": "%"},
      {"measurement": "ALP, Mean", "setting": "[2]; mouse, in vivo, po, 50 mg/kg", "value": 129, "unit": "U/L"},
      {"measurement": "ALT, AST and ALP concentration (plasma markers of hepatotoxicity)", "setting": "[2]; mouse, in vivo, po, 50 mg/kg", "value": "unaltered"},
      {"measurement": "ALT, Mean", "setting": "[2]; mouse, in vivo, po, 50 mg/kg", "value": 34, "unit": "U/L"},
      {"measurement": "AST, Mean", "setting": "[2]; mouse, in vivo, po, 50 mg/kg", "value": 119, "unit": "U/L"},
      {"measurement": "Albumin, Mean", "setting": "[2]; mouse, in vivo, po, 50 mg/kg", "value": 38, "unit": "g/L"},
      {"measurement": "BIL-D, Mean", "setting": "[2]; mouse, in vivo, po, 50 mg/kg", "value": 0.08, "unit": "µmol/L"},
      {"measurement": "BIL-T, Mean", "setting": "[2]; mouse, in vivo, po, 50 mg/kg", "value": 17, "unit": "µmol/L"},
      {"measurement": "Plasma albumin levels", "setting": "[2]; mouse, in vivo, po, 50 mg/kg", "value": "unaltered"},
      {"measurement": "triglyceride concentrations, decrease compared to corresponding control mice", "setting": "[2]; the two hPPARα mice", "value": "25% and 29%"},
      {"measurement": "Cyp4a protein expression (immunoblot, 50 kD band)", "setting": "Cyp4a protein", "value": "marked induction"},
      {"measurement": "PCO oxidation, % MEAN", "setting": "[3]; WT mice, % mean own control", "value": 265, "unit": "%"},
      {"measurement": "PCO oxidation, NAD + red.", "setting": "[3]; WT mice", "value": "79 nmol/min/mg and 73 nmol/min/mg and 82 nmol/min/mg"},
      {"measurement": "PCO oxidation, NAD + red., MEAN", "setting": "[3]; WT mice, n = 3", "value": 78, "unit": "nmol/min/mg"},
      {"measurement": "cyanide-insensitive pCoA oxidation, induction relative to vehicle controls", "setting": "[3]; both mouse lines (WT, hPPARα), crude mitochondrial fractions", "value": "approximately 3 fold"},
      {"measurement": "PCO oxidation, NAD + red.", "setting": "[3]; hPPARα mice", "value": "41 nmol/min/mg and 53 nmol/min/mg"},
      {"measurement": "Formation of 11-OH lauric acid, % MEAN", "setting": "Cyp4a activity", "value": 308, "unit": "%"},
      {"measurement": "Formation of 11-OH lauric acid, MEAN", "setting": "Cyp4a activity", "value": 3.0, "unit": "nmol/min/mg"},
      {"measurement": "Formation of 12-OH lauric acid, % MEAN", "setting": "Cyp4a activity", "value": 1669, "unit": "%"},
      {"measurement": "Formation of 12-OH lauric acid, MEAN", "setting": "Cyp4a activity", "value": 9.2, "unit": "nmol/min/mg"}
    ]}
  ]
}
